Counter-ions that a name gives are not always drawn. Like-named read-outs stand apart in the source and are kept apart here.
How the values were obtained:
α-1d adrenoreceptor = biological target: T1, α-1d adrenoreceptor (Rattus norvegicus, UniProt P23944); experiment: biochemical; format: binding
T1 sequence (P23944 1-561): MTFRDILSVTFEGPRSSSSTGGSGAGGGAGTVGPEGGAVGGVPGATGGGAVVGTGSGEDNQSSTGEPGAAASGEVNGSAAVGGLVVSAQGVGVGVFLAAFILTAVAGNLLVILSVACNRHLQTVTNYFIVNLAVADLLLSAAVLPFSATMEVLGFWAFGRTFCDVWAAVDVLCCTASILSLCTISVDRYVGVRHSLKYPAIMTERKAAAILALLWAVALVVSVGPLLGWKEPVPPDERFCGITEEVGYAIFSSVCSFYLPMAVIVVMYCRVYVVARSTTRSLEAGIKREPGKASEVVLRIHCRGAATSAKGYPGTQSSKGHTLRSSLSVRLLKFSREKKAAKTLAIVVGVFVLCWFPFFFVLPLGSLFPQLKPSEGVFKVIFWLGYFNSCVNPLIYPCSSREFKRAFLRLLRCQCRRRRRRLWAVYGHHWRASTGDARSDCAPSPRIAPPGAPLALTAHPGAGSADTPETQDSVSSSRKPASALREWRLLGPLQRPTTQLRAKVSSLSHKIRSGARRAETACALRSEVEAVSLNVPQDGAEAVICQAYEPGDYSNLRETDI
Summary of the method: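 Affinities are from radioligand binding on membranes of mouse LTK fibroblast clones stably expressing each cloned α-1 subtype; rat submaxillary gland served as native α-1A tissue.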

α-1A adrenoreceptor = biological target: T2, α-1A adrenoreceptor (Rattus norvegicus, UniProt P43140); experiment: cell-based; settings: phenylephrine-induced contraction, Schild plot; for Kb: read-out: In Vitro Characterization (pA2) Rat Vas (converted)
T2 sequence (P43140 1-466): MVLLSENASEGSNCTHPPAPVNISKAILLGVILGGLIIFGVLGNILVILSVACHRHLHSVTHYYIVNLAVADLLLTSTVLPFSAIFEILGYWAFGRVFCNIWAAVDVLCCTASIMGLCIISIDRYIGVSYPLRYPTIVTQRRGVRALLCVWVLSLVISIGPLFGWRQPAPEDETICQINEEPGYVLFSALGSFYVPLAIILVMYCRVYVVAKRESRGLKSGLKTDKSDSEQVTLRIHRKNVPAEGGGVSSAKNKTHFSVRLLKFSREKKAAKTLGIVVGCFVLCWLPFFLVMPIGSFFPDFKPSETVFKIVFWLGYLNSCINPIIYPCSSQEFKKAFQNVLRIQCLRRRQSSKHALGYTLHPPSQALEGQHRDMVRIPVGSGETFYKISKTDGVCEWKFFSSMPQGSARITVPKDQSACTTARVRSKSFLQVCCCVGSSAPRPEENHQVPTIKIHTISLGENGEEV
Text: Functional assays indicative of pharmacologically defined α-1 adrenoreceptors were used to further characterize compounds. Inhibition of phenylephrine (PE)-induced contraction of canine prostate smooth muscle can be correlated with α-1A adrenoreceptor activation. […] For each of these models, agonist dose response curves were repeated against increasing concentrations of test agent to derive a Schild plot [log ([…]) against log (molarity of test agent)] to determine the pA2.

[1] = [3H]-prazosin radioligand, cloned receptor in LTK cell membranes, read-out: Radioligand Binding (Ki, nM) 1d (Rat)

SMILES | Ki (α-1d adrenoreceptor) | In Vitro Characterization (pA2) Rat Vas (α-1A adrenoreceptor) | Ki (α-1d adrenoreceptor; [1]) | Kb (α-1A adrenoreceptor)
COc1cc2nc(N3CCN(C(=O)C4COc5ccccc5O4)CC3)nc(N)c2cc1OC (stereo not shown) [Doxazosin, doxazosin, reference compound] | 0.231 nM | 8.69 |  | 
COc1cccc2c1[C@@H]1CN(CCCCn3c(=O)[nH]c4c(sc5ncc(Cl)nc54)c3=O)C[C@H]1CO2 [Example 13, 3-[4-((3aS,9bR)-trans-9-Methoxy-1,2,3,3a,4,9b-hexahydro-[1]-benzopyrano[3,4-c]pyrrol-2-yl)butyl]-8-chloro-pyrazino[2',3':4,5]thieno[3,2-d]pyrimidine-2,4(1H,3H)-dione hydrochloride] |  |  | 0.112 nM | 0.158 nM
COc1cccc2c1[C@@H]1CN(CCCCn3c(=O)[nH]c4c(sc5c(OC)ccnc54)c3=O)C[C@H]1CO2 [Example 17, 3-[4-((3aS,9bR)-trans-9-Methoxy-1,2,3,3a,4,9b-hexahydro-[1]-benzopyrano[3,4-c]pyrrol-2-yl)butyl]-6-methoxy-pyrido[2',3':4,5]thieno[3,2-d]pyrimidine-2,4(1H,3H)-dione dihydrochloride] |  |  | 0.19 nM | 0.112 nM
COc1cccc2c1[C@@H]1CN(CCCCn3c(=O)[nH]c4c(sc5c(OC)ccnc54)c3=O)C[C@@H]1CO2 [Example 18, 3-[4-((3aR,9bR)-cis-9-Methoxy-1,2,3,3a,4,9b-hexahydro[1]-benzopyrano[3,4-c]pyrrol-2-yl)butyl]-6-methoxy-pyrido[2',3':4,5]thieno[3,2-d]pyrimidine-2,4(1H,3H)-dione dihydrochloride] |  |  | 0.79 nM | 0.741 nM
COc1cccc2c1[C@@H]1CN(CCCCn3c(=O)[nH]c4c(sc5ccc(Cl)nc54)c3=O)C[C@H]1CO2 [Example 25, 3-[4-((3aS,9bR)-trans-9-Methoxy-1,2,3,3a,4,9b-hexahydro-[1]-benzopyrano[3,4-c]pyrrol-2-yl)butyl]-8-chloro-pyrido[2',3':4,5]thieno[3,2-d]pyrimidine-2,4(1H,3H)-dione dihydrochloride] |  |  | 0.039 nM | 0.12 nM
COc1ccc2sc3c(=O)n(CCCCN4C[C@H]5COc6cccc(OC)c6[C@@H]5C4)c(=O)[nH]c3c2n1 [Example 26, 3-[4-((3aS,9bR)-trans-9-Methoxy-1,2,3,3a,4,9b-hexahydro-[1]-benzopyrano[3,4-c]pyrrol-2-yl)butyl]-8-methoxy-pyrido[2',3':4,5]thieno[3,2-d]pyrimidine-2,4(1H,3H)-dione hydrochloride] |  |  | 0.017 nM | 0.0457 nM
COc1cccc2c1[C@@H]1CN(CCCCn3c(=O)[nH]c4c(sc5ccncc54)c3=O)C[C@@H]1CO2 [Example 28, 3-[4-((3aR,9bR)-cis-9-Methoxy-1,2,3,3a,4,9b-hexahydro-[1]-benzopyrano[3,4-c]pyrrol-2-yl)butyl]-pyrido[3',4':4,5]thieno[3,2-d]pyrimidine-2,4(1H,3H)-dione dihydrochloride] |  |  | 0.195 nM | 0.407 nM
COc1cccc2c1[C@@H]1CN(CCCCn3c(=O)[nH]c4c(sc5cnccc54)c3=O)C[C@@H]1CO2 [Example 29, 3-[4-((3aR,9bR)-cis-9-Methoxy-1,2,3,3a,4,9b-hexahydro-[1]-benzopyrano[3,4-c]pyrrol-2-yl)butyl]-pyrido[4',3':4,5]thieno[3,2-d]pyrimidine-2,4(1H,3H)-dione dihydrochloride] |  |  | 0.466 nM | 0.437 nM
COc1ccc2sc3c(=O)n(CCCCN4C[C@@H]5COc6cccc(OC)c6[C@@H]5C4)c(=O)[nH]c3c2n1 [Example 30, 3-[4-((3aR,9bR)-cis-9-Methoxy-1,2,3,3a,4,9b-hexahydro-[1]-benzopyrano[3,4-c]pyrrol-2-yl)butyl]-8-methoxy-pyrido[2',3':4,5]thieno[3,2-d]pyrimidine-2,4(1H,3H)-dione hydrochloride] |  |  | 0.222 nM | 0.251 nM
COc1cnc2sc3c(=O)n(CCCCN4C[C@@H]5COc6cccc(OC)c6[C@@H]5C4)c(=O)[nH]c3c2n1 [Example 31, 3-[4-((3aR,9bR)-cis-9-Methoxy-1,2,3,3a,4,9b-hexahydro-[1]-benzopyrano[3,4-c]pyrrol-2-yl)butyl]-8-methoxy-pyrazino[2',3':4,5]thieno[3,2-d]pyrimidine-2,4(1H,3H)-dione hydrochloride] |  |  | 0.344 nM | 0.229 nM
COc1cccc2c1[C@@H]1CN(CCCCn3c(=O)[nH]c4c(sc5ncccc54)c3=O)C[C@@H]1CO2 [Example 34, 3-[4-((3aR,9bR)-cis-9-Methoxy-1,2,3,3a,4,9b-hexahydro-[1]-benzopyrano[3,4-c]pyrrol-2-yl)butyl]-pyrido[3',2':4,5]thieno[3,2-d]pyrimidine-2,4(1H,3H)-dione hydrochloride] |  |  | 0.339 nM | 0.589 nM
COc1cccc2c1[C@@H]1CN(CCCCn3c(=O)[nH]c4c(sc5nc(C)ccc54)c3=O)C[C@@H]1CO2 [Example 35, 3-[4-((3aR,9bR)-cis-9-Methoxy-1,2,3,3a,4,9b-hexahydro-[1]-benzopyrano[3,4-c]pyrrol-2-yl)butyl]-7-methyl-pyrido[3',2':4,5]thieno[3,2-d]pyrimidine-2,4(1H,3H)-dione hydrochloride] |  |  | 0.436 nM | 1.26 nM
COc1cccc2c1[C@@H]1CN(CCCCn3c(=O)[nH]c4c(sc5nccc(OC)c54)c3=O)C[C@@H]1CO2 [Example 36, 3-[4-((3aR,9bR)-cis-9-Methoxy-1,2,3,3a,4,9b-hexahydro-[1]-benzopyrano[3,4-c]pyrrol-2-yl)butyl]-9-methoxy-pyrido[3',2':4,5]thieno[3,2-d]pyrimidine-2,4(1H,3H)-dione hydrochloride] |  |  | 0.36 nM | 0.537 nM
COc1cccc2c1[C@@H]1CN(CCCCn3c(=O)[nH]c4c(sc5ccc(Cl)nc54)c3=O)C[C@@H]1CO2 [Example 37, 3-[4-((3aR,9bR)-cis-9-Methoxy-1,2,3,3a,4,9b-hexahydro-[1]-benzopyrano[3,4-c]pyrrol-2-yl)butyl]-8-chloro-pyrido[2',3':4,5]thieno[3,2-d]pyrimidine-2,4(1H,3H)-dione hydrochloride] |  |  | 0.195 nM | 0.204 nM
COc1cccc2c1[C@@H]1CN(CCCCn3c(=O)[nH]c4c(sc5cc(Cl)cnc54)c3=O)C[C@@H]1CO2 [Example 38, 3-[4-((3aR,9bR)-cis-9-Methoxy-1,2,3,3a,4,9b-hexahydro-[1]-benzopyrano[3,4-c]pyrrol-2-yl)butyl]-7-chloro-pyrido[2',3':4,5]thieno[3,2-d]pyrimidine-2,4(1H,3H)-dione hydrochloride] |  |  | 0.897 nM | 0.282 nM
COc1cccc2c1[C@@H]1CN(CCCCn3c(=O)[nH]c4c(sc5ncc(-c6ccccc6)nc54)c3=O)C[C@@H]1CO2 [Example 39, 3-[4-((3aR,9bR)-cis-9-Methoxy-1,2,3,3a,4,9b-hexahydro-[1]-benzopyrano[3,4-c]pyrrol-2-yl)butyl]-8-phenyl-pyrazino[2',3':4,5]thieno[3,2-d]pyrimidine-2,4(1H,3H)-dione hydrochloride] |  |  | 2.15 nM | 0.162 nM
COc1cccc2c1[C@@H]1CN(CCCCn3c(=O)[nH]c4c(sc5nc(-c6ccccc6)cnc54)c3=O)C[C@@H]1CO2 [Example 40, 3-[4-((3aR,9bR)-cis-9-Methoxy-1,2,3,3a,4,9b-hexahydro-[1]-benzopyrano[3,4-c]pyrrol-2-yl)butyl]-7-phenyl-pyrazino[2',3':4,5]thieno[3,2-d]pyrimidine-2,4(1H,3H)-dione hydrochloride] |  |  | 7.12 nM | 3.02 nM

— patent EP0942911B1, “BENZOPYRANOPYRROLE AND BENZOPYRANOPYRIDINE ALPHA-1 ADRENERGIC COMPOUNDS” (Abbott Laboratories, priority 1996, dated 1998)
